From publication PMC6864482, “Novel C7-Substituted Coumarins as Selective Monoamine Oxidase Inhibitors: Discovery, Synthesis and Theoretical Simulation” (Molecules, 2019)
pIC50: −log10 of the molar value.

Legend:
hMAO-B = molecular target: T1, hMAO-B (Homo sapiens, UniProt P27338); conditions: previously identified BRS-3D hits, cited from earlier work
T1 sequence (P27338 1-520): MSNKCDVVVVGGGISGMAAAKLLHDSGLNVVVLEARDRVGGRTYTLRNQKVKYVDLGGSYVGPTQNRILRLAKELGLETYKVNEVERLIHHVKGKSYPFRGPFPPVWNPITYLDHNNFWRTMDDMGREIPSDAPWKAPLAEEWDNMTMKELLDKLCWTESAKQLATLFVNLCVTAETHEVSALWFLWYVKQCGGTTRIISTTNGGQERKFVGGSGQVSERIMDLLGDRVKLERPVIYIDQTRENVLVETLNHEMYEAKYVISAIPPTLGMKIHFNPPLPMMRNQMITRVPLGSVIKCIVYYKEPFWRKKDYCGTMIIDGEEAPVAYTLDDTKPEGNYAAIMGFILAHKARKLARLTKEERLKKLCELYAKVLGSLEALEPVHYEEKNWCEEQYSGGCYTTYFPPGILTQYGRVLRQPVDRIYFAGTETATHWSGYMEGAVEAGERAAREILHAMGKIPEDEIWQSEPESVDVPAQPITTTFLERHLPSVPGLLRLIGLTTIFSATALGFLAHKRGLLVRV

hMAO-A = molecular target: T2, hMAO-A (Homo sapiens, UniProt P21397); conditions: previously identified BRS-3D hits, cited from earlier work
T2 sequence (P21397 1-527): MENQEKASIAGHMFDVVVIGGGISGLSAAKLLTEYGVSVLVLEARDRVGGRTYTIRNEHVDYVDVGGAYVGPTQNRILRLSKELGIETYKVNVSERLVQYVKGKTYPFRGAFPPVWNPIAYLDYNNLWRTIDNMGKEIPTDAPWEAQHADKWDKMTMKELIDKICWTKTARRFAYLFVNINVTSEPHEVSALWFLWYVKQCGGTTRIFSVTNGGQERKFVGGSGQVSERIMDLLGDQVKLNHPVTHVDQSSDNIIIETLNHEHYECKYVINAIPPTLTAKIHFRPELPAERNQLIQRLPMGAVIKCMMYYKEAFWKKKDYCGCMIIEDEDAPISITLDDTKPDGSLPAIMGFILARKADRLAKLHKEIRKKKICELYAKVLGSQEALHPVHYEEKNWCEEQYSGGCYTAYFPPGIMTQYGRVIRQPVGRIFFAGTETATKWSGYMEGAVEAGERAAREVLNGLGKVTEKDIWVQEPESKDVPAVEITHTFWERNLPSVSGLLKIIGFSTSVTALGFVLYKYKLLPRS

[1] = pIC50 = −log(IC50), listed as M43 (7a)

In the case of `Cc1cc(=O)oc2cc(Oc3nnc(-c4ccccc4)s3)ccc12` [M43, 4-Methyl-7-((5-phenyl-1,3,4-thiadiazol-2-yl)oxy)-2H-chromen-2-one], the “MAO-B Avg. Inh% at 10 uM” value (hMAO-B; 10 μM) is listed as 96%, the “MAO-B pIC50” value (hMAO-B; [1]) is listed as 6.4 and the pIC50 (hMAO-B; read-out: MAO-B IC50) is listed as 6.44. The “MAO-A pIC50” value (hMAO-A; [1]) was 6.8, the pIC50 (hMAO-A; read-out: MAO-A IC50) was 6.80 and the melting point was 124 to 125 °C.
